Consider 28 compounds from US10058534B2, “Benzothiophene derivatives and compositions thereof as selective estrogen receptor degraders” (NOVARTIS AG, priority 2013, dated 2018).

The target in assay [1] is ER (endogenous, MCF7 cells) (Homo sapiens (Human), UniProt P03372). As to the kind of experiment: ER transcription assay (MCF7 cells), ERE-luciferase reporter. The conditions noted are these: inflection point of the inhibition of transcription in MCF7 cells; 0.1 nM estradiol, 24 hours; read-out: MCF7 IC50. The format is cell-based. The text has this: ER Transcription Assay (MCF7 Cells)
The ER transcription assay is a reporter assay that is based on the ability of ER to induce transcription from a luciferase reporter gene containing estrogen response elements (EREs) in the promoter/enhancer region. When the reporter gene is transfected in MCF7 cells (containing endogenous ER), transcription is reflected by the level of luciferase expression.
A day before transfection, cells are split into a T75 flask at a cell density of 300,000 cells/mL (10 mL total) and allowed to attach overnight in a humidified CO2 incubator at 37° C.
Approximately 20 ug DNA is mixed in OptiMEM (Invitrogen) to a total volume of 650 μL. Following incubation, the OptiMEM-DNA mixture is added to the OptiMEM-Lipofectin mix and incubated for 15 minutes at 37° C. The DNA-Lipofectin mixture is then added directly to the T75 flask and the flask is returned to the incubator.
Normally, DMSO (used as a vehicle) is included to achieve a final concentration of 0.1% when added to the cells. Transfected cells are trypsinized, resuspended in DMEM/F12/10% charcoal-stripped serum and added to the 96-well plate at 25,000 cells/well in 90 μL of media. The plate is then returned to the incubator for 24 hours.
After incubation with compounds for 24 hours, Firefly and Renilla luciferase activities are measured to determine ER transcriptional activity. Media is removed from 96-well plates by decanting and blotting on paper towels.
One second total read time after a one second delay.
One second total read time after one second delay. If Firefly luciferase signal is high, Renilla assay must be done an hour after the Firefly assay due to incomplete squelching of Firefly signal.
(§1) The column titled MCF7 IC50 reports the inflection point of the inhibition of transcription in MCF7 cells as described above. Percentage ERα remaining reports the remaining ERα protein measured at 10 μM concentration of the ligand as described above. The column ERα IC50 reports the inflection point of the degradation in response to the ligand concentration.
In general terms: In a reporter assay the amount or activity of a reporter protein is the signal.

The target of a further assay is ERα (Homo sapiens (Human), UniProt P03372). Kind of assay: ERα degradation (MCF7 cells), in-cell Western. The assay is classed as cell-based. As to conditions: for IC50: inflection point of the degradation in response to ligand concentration; for IC50 / % ERα remaining: MCF7 cells; for % ERα remaining: remaining ERα protein at 10 μM ligand, relative to DMSO control; for ER Percentage remaining: degradation potential. The method, then:
ERα Degradation (MCF7 Cells)
as §1

SMILES strings stand for the structures.

Chain of ERα (P03372 whole entry): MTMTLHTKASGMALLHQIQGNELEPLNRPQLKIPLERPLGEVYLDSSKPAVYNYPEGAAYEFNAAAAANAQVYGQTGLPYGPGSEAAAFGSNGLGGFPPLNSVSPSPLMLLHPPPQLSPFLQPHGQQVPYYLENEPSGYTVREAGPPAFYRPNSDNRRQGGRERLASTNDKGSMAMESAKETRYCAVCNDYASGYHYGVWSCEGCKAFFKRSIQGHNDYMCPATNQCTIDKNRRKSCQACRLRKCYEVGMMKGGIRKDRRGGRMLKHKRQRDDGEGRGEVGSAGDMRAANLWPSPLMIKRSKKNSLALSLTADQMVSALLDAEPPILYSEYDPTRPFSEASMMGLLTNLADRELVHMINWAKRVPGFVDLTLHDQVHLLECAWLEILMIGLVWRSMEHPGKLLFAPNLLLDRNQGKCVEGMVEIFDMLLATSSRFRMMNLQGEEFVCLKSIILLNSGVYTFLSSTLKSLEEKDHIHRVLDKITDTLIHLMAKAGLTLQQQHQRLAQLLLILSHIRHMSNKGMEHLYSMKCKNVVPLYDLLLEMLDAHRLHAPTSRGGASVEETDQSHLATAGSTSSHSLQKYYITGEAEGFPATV
Chain of ER (endogenous, MCF7 cells) (P03372 whole entry): as above

Take `[C-]#[N+]c1ccccc1-c1sc2cc(O)ccc2c1Oc1ccc(/C=C/C(=O)O)cc1` [Example 24, (E)-3-(4-((6-hydroxy-2-(2-isocyanophenyl)-benzo[b]thiophen-3-yl)oxy)phenyl)acrylic acid]: the IC50 (as a rule, the concentration needed to halve the response being measured) in assay [1] was 2580 nM. Besides, on ERα, half-maximal inhibition (IC50) was put at 33 nM and the “% ERα remaining” value stood at 22%.

As for `COC(=O)/C=C/c1ccc(Oc2c(-c3ccc(O)c(C)c3)sc3cc(O)ccc23)cc1` [Example 41, (E)-methyl 3-(4-((6-hydroxy-2-(4-hydroxy-3-methylphenyl)-benzo[b]thiophen-3-yl)oxy)phenyl)acrylate], in assay [1], the IC50 was 10000 nM. The “% ERα remaining” value on ERα is 32%.

Turning to `CCOC(=O)/C=C/c1ccc(Oc2c(-c3ccc(O)cc3)sc3cc(O)ccc23)cc1OC` [Example 43, (E)-ethyl 3-(4-((6-hydroxy-2-(4-hydroxyphenyl)benzo[b]thiophen-3-yl)oxy)-2-methoxyphenyl)acrylate], in assay [1], the IC50 was found to be 10000 nM. Further, the “% ERα remaining” value at ERα is 41%.

For `COC(=O)/C=C/c1ccc(Oc2c(-c3ccccc3)sc3cc(O)ccc23)cc1` [Example 44, (E)-methyl 3-(4-((6-hydroxy-2-phenylbenzo[b]thiophen-3-yl)oxy)phenyl)-acrylate], in assay [1], the IC50 worked out at 10000 nM. At ERα, the “% ERα remaining” value is on record as 25%.

On to `COC(=O)/C=C/c1ccc(Oc2c(-c3ccccc3C(C)C)sc3cc(O)ccc23)cc1` [Example 45, (E)-methyl 3-(4-((6-hydroxy-2-(2-isopropylphenyl)benzo[b]thiophen-3-yl)oxy)phenyl)acrylate], for which the IC50 in assay [1] was 23 nM. The “% ERα remaining” value on ERα is on record as 30%.

With `Cn1nnnc1/C=C/c1ccc(Oc2c(-c3ccc(O)cc3)sc3cc(O)ccc23)cc1` [Example 54, (E)-2-(4-hydroxyphenyl)-3-(4-(2-(1-methyl-1H-tetrazol-5-yl)vinyl)phenoxy)benzo[b]thiophen-6-ol], on ERα, the IC50 came out at 60 nM and the “% ERα remaining” value amounted to 39%.

Turning to `Cc1cc(/C=C/C(=O)O)ccc1Oc1c(-c2ccc(O)cc2)sc2cc(O)ccc12` [Example 57, (E)-3-(4-((6-hydroxy-2-(4-hydroxyphenyl)-benzo[b]thiophen-3-yl)oxy)-3-methylphenyl)acrylic acid], the “% ERα remaining” value on ERα worked out at 37%.

On to `O=C(O)/C=C/c1ccc(Oc2c(-c3ccc(OC(F)(F)F)cc3)sc3cc(O)ccc23)cc1` [Example 59, (E)-3-(4-((6-hydroxy-2-(4-(trifluoromethoxy)-phenyl)benzo[b]thiophen-3-yl)oxy)phenyl)-acrylic acid], for which, at ERα, the IC50 stood at 30 nM and the “% ERα remaining” value is 17%.

Turning to `O=C(O)/C=C/c1ccc(Oc2c(-c3ccccc3)sc3cc(O)ccc23)cc1` [Example 60, (E)-3-(4-((6-hydroxy-2-phenylbenzo[b]thiophen-3-yl)oxy)phenyl)-acrylic acid], on ERα, half-maximal inhibition (IC50) required 26 nM and the “% ERα remaining” value is on record as 23%.

Consider `Cc1cc(-c2sc3cc(O)ccc3c2Oc2ccc(/C=C/C(=O)O)cc2)ccc1O` [Example 61, (E)-3-(4-((6-hydroxy-2-(4-hydroxy-3-methylphenyl)benzo[b]thiophen-3-yl)oxy)phenyl)acrylic acid], for which, at ERα, 18 nM corresponded to half-maximal inhibition (IC50) and the “% ERα remaining” value is 26%.

Consider `C/C(=C\C(=O)O)c1ccc(Oc2c(-c3ccc(O)cc3)sc3cc(O)ccc23)cc1` [Example 62, (E)-3-(4-((6-hydroxy-2-(4-hydroxyphenyl)-benzo[b]thiophen-3-yl)oxy)phenyl)but-2-enoic acid], for which, at ERα, the “% ERα remaining” value is 42%.

Regarding `CNC(=O)/C=C/c1ccc(Oc2c(-c3ccc(C(F)(F)F)cc3)sc3cc(O)ccc23)cc1` [Example 63, (E)-3-(4-((6-hydroxy-2-(4-(trifluoromethyl)-phenyl)benzo[b]thiophen-3-yl)oxy)phenyl)-N-methylacrylamide], on ERα, half-maximal inhibition (IC50) required 24 nM and the “% ERα remaining” value came out at 26%.

With `NC(=O)/C=C/c1ccc(Oc2c(-c3ccc(O)cc3)sc3cc(O)ccc23)cc1` [Example 64, (E)-3-(4-((6-hydroxy-2-(4-hydroxyphenyl)-benzo[b]thiophen-3-yl)oxy)phenyl)acrylamide], the “% ERα remaining” value at ERα is recorded as 48%.

Turning to `O=C(/C=C/c1ccc(Oc2c(-c3ccc(O)cc3)sc3cc(O)ccc23)cc1)NCCO` [Example 65, (E)-3-(4-((6-hydroxy-2-(4-hydroxyphenyl)benzo[b]thiophen-3-yl)oxy)phenyl)-N-(2-hydroxyethyl)acrylamide], the “% ERα remaining” value on ERα was found to be 47%.

In the case of `CNC(=O)/C=C/c1ccc(Oc2c(-c3ccc(O)cc3)sc3cc(O)ccc23)cc1` [Example 66, (E)-3-(4-((6-hydroxy-2-(4-hydroxyphenyl)benzo[b]thiophen-3-yl)oxy)phenyl)-N-methylacrylamide], on ERα, 58 nM corresponded to half-maximal inhibition (IC50) and the “% ERα remaining” value is recorded as 40%.

For `CNC(=O)/C=C/c1ccc(Oc2c(-c3ccc(F)cc3)sc3cc(O)ccc23)cc1` [Example 67, (E)-3-(4-((2-(4-fluorophenyl)-6-hydroxybenzo[b]thiophen-3-yl)oxy)phenyl)-N-methylacrylamide], on ERα, the IC50 stood at 347 nM and the “% ERα remaining” value was found to be 36%.

Regarding `CNC(=O)/C=C/c1ccc(Oc2c(-c3ccc(O)c(C)c3)sc3cc(O)ccc23)cc1` [Example 68, (E)-3-(4-((6-hydroxy-2-(4-hydroxy-3-methylphenyl)benzo[b]thiophen-3-yl)oxy)phenyl)-N-methylacrylamide], at ERα, 161 nM corresponded to half-maximal inhibition (IC50) and the “% ERα remaining” value came out at 43%.

Turning to `CCCn1cncc1/C=C/c1ccc(Oc2c(-c3ccc(O)cc3)sc3cc(O)ccc23)cc1` [Example 75, (E)-2-(4-hydroxyphenyl)-3-(4-(2-(1-propyl-1H-imidazol-5-yl)vinyl)phenoxy)benzo [b]thiophen-6-ol], the “% ERα remaining” value on ERα is reported as 41%.

Regarding `Cc1cc(F)ccc1-c1sc2cc(O)ccc2c1Oc1ccc(/C=C/c2nnc(C3CC3)o2)cc1` [Example 76, (E)-3-(4-(2-(5-cyclopropyl-1,3,4-oxadiazol-2-yl)vinyl)phenoxy)-2-(4-fluoro-2-methylphenyl)benzo[b] thiophen-6-ol], at ERα, 47 nM corresponded to half-maximal inhibition (IC50) and the “% ERα remaining” value is on record as 42%.

With `COCc1ccccc1-c1sc2cc(O)ccc2c1Oc1ccc(/C=C/C(=O)O)cc1` [Example 80, (E)-3-(4-((6-hydroxy-2-(2-(methoxymethyl)phenyl)benzo[b]thiophen-3-yl)oxy)phenyl)acrylic acid], the “% ERα remaining” value at ERα stood at 14%.

As to `Cc1cc(F)ccc1-c1sc2cc(O)ccc2c1Oc1ccc(/C=C/c2nnc(C)n2C)cc1` [Example 106, (E)-3-(4-(2-(4,5-dimethyl-4H-1,2,4-triazol-3-yl)vinyl)phenoxy)-2-(4-fluoro-2-methylphenyl)benzo[b] thiophen-6-ol], the “% ERα remaining” value at ERα is recorded as 17%.

`CCc1cccc(CC)c1-c1sc2cc(O)ccc2c1Oc1ccc(/C=C/C(=O)O)cc1` [Example 130, (E)-3-(4-((2-(2,6-diethylphenyl)-6-hydroxybenzo[b]thiophen-3-yl)oxy)phenyl)acrylic acid]: on ERα, the “% ERα remaining” value stood at 12%.

Take `CCCc1nnc(/C=C/c2ccc(Oc3c(-c4ccc(F)cc4C)sc4cc(O)ccc34)cc2)o1` [compound 47, (E)-2-(4-fluoro-2-methylphenyl)-3-(4-(2-(5-propyl-1,3,4-oxadiazol-2-yl)vinyl)phenoxy)benzo [b]thiophen-6-ol]: on ERα, the “% ERα remaining” value amounted to 43%.

Regarding `Cn1nnc(/C=C/c2ccc(Oc3c(-c4ccc(O)cc4)sc4cc(O)ccc34)cc2)n1` [compound 55, (E)-2-(4-hydroxyphenyl)-3-(4-(2-(2-methyl-2H-tetrazol-5-yl)vinyl)-phenoxy)benzo[b] thiophen-6-ol], on ERα, the IC50 amounted to 34 nM and the “% ERα remaining” value was 33%.

Consider `O=C(O)/C=C/c1ccc(Oc2c(-c3ccc(O)cc3)sc3cc(O)ccc23)cc1` [drawing 5], for which the “ER Percentage remaining” value at ERα (comparison of X position) was 41 Percentage.

As to `O=C(O)/C=C/c1ccc(Oc2c(-c3ccc(O)cc3)sc3cc(O)ccc23)cc1` [drawing 8], the “ER Percentage remaining” value on ERα (comparison of linker length between phenyl and -C(O)OH) was determined as 41 Percentage.

For the compound `O=C(O)/C=C/c1ccc(-c2c(-c3ccc(O)cc3)sc3cc(O)ccc23)cc1` [reference compound], the “ER Percentage remaining” value on ERα (comparison of X position) is 76 Percentage.

`O=C(O)/C=C/c1ccc(C(=O)c2c(-c3ccc(O)cc3)sc3cc(O)ccc23)cc1` [reference compound]: the “ER Percentage remaining” value at ERα (comparison of X position) was 60 Percentage.
